Measurements taken from patent publication US12043599B2, “Herbicidal compounds” (SYNGENTA PARTICIPATIONS AG, priority 2018, dated 2024).

Tests used:
Assay type in all cases: in vivo
Settings in all cases: 250 g/h, evaluated after 13 days
[1] = tested on: Lolium perenne (LOLPE); test: Pre-emergence herbicidal glasshouse test, percentage damage
How it was run: (§1)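 Seeds are sown in pots, grown at 24/16 °C day/night with 14 h light and 65% humidity, then sprayed at day 1 (pre-emergence) or day 8 (post-emergence). The rate is 250 g/h in acetone/water 50:50 with 0.5% Tween 20. Damage is assessed 13 days later on a 1–5 scale.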

[2] = tested on: Alopecurus myosuroides (ALOMY); test: as above
How it was run: as §1

[3] = tested on: Echinochloa crus-galli (ECHCG); test: as above
How it was run: as §1

[4] = tested on: Setaria faberi (SETFA); test: as above
How it was run: as §1

[5] = tested on: Avena fatua (AVEFA); test: as above
How it was run: as §1

[6] = tested on: Setaria faberi (SETFA); test: Post-emergence herbicidal glasshouse test, percentage damage
How it was run: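 Percentage damage was scored 13 days after treatment on a five-point scale (1=0-19% to 5=80-100%). Treatments were post-emergence sprays on 8-day-old wheat, barley and SETFA plants in a glasshouse (24/16 °C day/night, 14 h light, 65% humidity), using acetone/water 50:50 with 0.5% Tween 20 at the stated rates. Wheat additionally received cloquintocet-mexyl safener at 50 g/ha.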

[7] = tested on: Lolium perenne (LOLPE); test: as above
How it was run: as §1

[8] = tested on: Alopecurus myosuroides (ALOMY); test: as above
How it was run: as §1

[9] = tested on: Avena fatua (AVEFA); test: as above
How it was run: as §1

[10] = tested on: Echinochloa crus-galli (ECHCG); test: as above
How it was run: as §1

Row | Compound | LOLPE PRE percentage damage (five point scale) [1] | ALOMY PRE percentage damage (five point scale) [2] | ECHCG PRE percentage damage (five point scale) [3] | SETFA PRE percentage damage (five point scale) [4] | AVEFA PRE percentage damage (five point scale) [5] | SETFA POST percentage damage (five point scale) [6] | LOLPE POST percentage damage (five point scale) [7] | ALOMY POST percentage damage (five point scale) [8] | AVEFA POST percentage damage (five point scale) [9] | ECHCG POST percentage damage (five point scale) [10]
1 | CC#Cc1cc(C)c(C2C(=O)CC3(CCN(S(=O)(=O)CC4CC4)CC3)CC2=O)c(C)c1 [Compound A15] | 5 (5=80-100%) | 5 (5=80-100%) | 5 (5=80-100%) | 5 (5=80-100%) | 5 (5=80-100%) | 5 (5=80-100%) | 5 (5=80-100%) | 5 (5=80-100%) | 5 (5=80-100%) | –
2 | CC#Cc1cc(C)c(C2C(=O)CC3(CCN(S(=O)(=O)c4ccccc4F)CC3)CC2=O)c(C)c1 [Compound A17] | 5 (5=80-100%) | 5 (5=80-100%) | 5 (5=80-100%) | 5 (5=80-100%) | 5 (5=80-100%) | 5 (5=80-100%) | 5 (5=80-100%) | 5 (5=80-100%) | 5 (5=80-100%) | –
3 | CC#Cc1cc(C)c(C2C(=O)CC3(CCN(C(=O)c4ccc(C#N)cn4)CC3)CC2=O)c(C)c1 [Compound A20] | 5 (5=80-100%) | 5 (5=80-100%) | 5 (5=80-100%) | 5 (5=80-100%) | 5 (5=80-100%) | 5 (5=80-100%) | 5 (5=80-100%) | 5 (5=80-100%) | 5 (5=80-100%) | –
4 | CC#Cc1cc(C)c(C2=C(OC(=O)OC)CC3(CCN(C(=O)c4cccnc4)CC3)CC2=O)c(C)c1 [Compound P35] | 5 (5=80-100%) | 5 (5=80-100%) | 5 (5=80-100%) | 5 (5=80-100%) | 5 (5=80-100%) | 5 (5=80-100%) | 5 (5=80-100%) | – | 5 (5=80-100%) | 5 (5=80-100%)
5 | CC#Cc1cc(C)c(C2=C(OC(=O)OC)CC3(CCN(C(=O)c4ccncn4)CC3)CC2=O)c(C)c1 [Compound P37] | 5 (5=80-100%) | 5 (5=80-100%) | 5 (5=80-100%) | 5 (5=80-100%) | 5 (5=80-100%) | 5 (5=80-100%) | 5 (5=80-100%) | – | 5 (5=80-100%) | 5 (5=80-100%)
6 | CC#Cc1cc(C)c(C2=C(OC(=O)OC)CC3(CCN(C(=O)c4cnccn4)CC3)CC2=O)c(C)c1 [Compound P38] | 5 (5=80-100%) | 5 (5=80-100%) | 5 (5=80-100%) | 5 (5=80-100%) | 5 (5=80-100%) | 5 (5=80-100%) | 5 (5=80-100%) | – | 5 (5=80-100%) | 5 (5=80-100%)
7 | CC#Cc1cc(C)c(C2=C(OC(=O)OC)CC3(CCN(C(=O)C4=NOC(C)(C)C4)CC3)CC2=O)c(C)c1 [Compound P39] | 5 (5=80-100%) | 5 (5=80-100%) | 5 (5=80-100%) | 5 (5=80-100%) | 5 (5=80-100%) | 5 (5=80-100%) | 5 (5=80-100%) | – | 5 (5=80-100%) | 5 (5=80-100%)
8 | CC#Cc1cc(C)c(C2=C(OC(=O)OC)CC3(CCN(C(=O)C4CCOCC4)CC3)CC2=O)c(C)c1 [Compound P40] | 5 (5=80-100%) | 5 (5=80-100%) | 5 (5=80-100%) | 5 (5=80-100%) | 5 (5=80-100%) | 5 (5=80-100%) | 5 (5=80-100%) | – | 5 (5=80-100%) | 5 (5=80-100%)
9 | CC#Cc1cc(C)c(C2=C(OC(C)=O)CC3(CCN(C(=O)CC#N)CC3)CC2=O)c(C)c1 [Compound P41] | 5 (5=80-100%) | 5 (5=80-100%) | 5 (5=80-100%) | 5 (5=80-100%) | 5 (5=80-100%) | 5 (5=80-100%) | 5 (5=80-100%) | – | 5 (5=80-100%) | 5 (5=80-100%)
10 | CC#Cc1cc(C)c(C2=C(OC(=O)OC)CC3(CCN(C(=O)C4CC4)CC3)CC2=O)c(C)c1 [Compound P42] | 5 (5=80-100%) | 5 (5=80-100%) | 5 (5=80-100%) | 5 (5=80-100%) | 5 (5=80-100%) | 5 (5=80-100%) | 5 (5=80-100%) | – | 5 (5=80-100%) | 5 (5=80-100%)
11 | CC#Cc1cc(C)c(C2=C(OC(=O)OC)CC3(CCN(C(=O)CC#N)CC3)CC2=O)c(C)c1 [Compound P43] | 5 (5=80-100%) | 5 (5=80-100%) | 5 (5=80-100%) | 5 (5=80-100%) | 5 (5=80-100%) | 5 (5=80-100%) | 5 (5=80-100%) | – | 5 (5=80-100%) | 4 (4=60-79%)
12 | CC#Cc1cc(C)c(C2=C(OC(=O)OC)CC3(CCN(C(=O)C4COC4)CC3)CC2=O)c(C)c1 [Compound P44] | 5 (5=80-100%) | 5 (5=80-100%) | 5 (5=80-100%) | 5 (5=80-100%) | 5 (5=80-100%) | 5 (5=80-100%) | 5 (5=80-100%) | – | 5 (5=80-100%) | 5 (5=80-100%)
